Results published in patent publication US6911460B2, “Antiviral agents and methods of treating viral infections” (Vion Pharmaceuticals, Inc., priority 2001, dated 2005).
Blank lines part the entries; values can stand above or below the compound they belong to.

What was measured:
HSV-1 (KOS) = test: Virus yield assay, Triapine plus acyclovir against HSV-1; type: cell-based, herpes simplex virus; conditions: for EC90: virus yield assay, 48 hr, combinations: ACV with fixed Triapine concentration
Description: (§1) To evaluate the antiviral activities of Triapine, acyclovir, and combination thereof, HeLa S3 cells are seeded in 25-cm^2 flasks and are used as host cells for virus infection (laboratory strains of virus HSV-1, HSV-2, wild type (Darby et al., (1982) Nature, 289, 81-3; Cheng, et al., Antimicrob. Agents Chemother. 18, 957-61, 1980). After a 1-hr adsorption period with virus at 5-10 plaque-forming units per cell, the monolayers are rinsed with phosphate-buffered saline, followed by the addition of 5 ml of growth medium containing various concentrations of drug. Concentrations of Triapine tested range from 0.1 to 1.0 micromolar where concentrations of acyclovir are from 1-50 micromolar. The cells are incubated at 37° C. for 48 hr and then are stored frozen at −70° C. until titration. The amounts of HSV contained in cells are determined with Vero cells using the methods described by Cheng et al. (Cheng, et al., Antimicrob. Agents Chemother. 18, 957-61, 1980).
(§2) The results of the above-test are presented in the following Table 1, below, which presents the antiviral activity of Triapine, at low, non-toxic clinically achievable concentrations of 0.3, 0.6 and 1.0 μM, in combination with acyclovir against HSV-1 (KOS) and HSV-2 (333) strains of herpes simplex virus in a virus yield assay. […] A greater than 4-fold decrease in the EC90 of ACV against HSV-2 is observed with 0.6 μM Triapine.

HSV-2 (333) = test: Virus yield assay, Triapine plus acyclovir against HSV-2; type: cell-based, herpes simplex virus; conditions: for EC90: virus yield assay, 48 hr, combinations: ACV with fixed Triapine concentration
Description: as §1, §2

[1] = system: acyclovir-resistant HSV strains; conditions: in combination with acyclovir; cited from earlier work
[2] = design: dose or concentration left out as unconfirmed; conditions: cancer patients, 96-hour infusion; cited from earlier work
strain IIIB of HIV = test: Anti-HIV activity of Triapine combinations in HIV-infected MT-2 cells (MTT, isobolograms); type: cell-based, HIV-1; conditions: FIG. 4
Description: MT-2 cells infected with strain IIIB of HIV (wildtype, 3TC resistant, or AZT resistant) are used for determining antiviral activities (Bridges et al., Biochem. Pharmacol. Vol. 51, 731-36, 1996). Cells are infected with virus at a multiplicity of infection of 0.1 TCID50/ml and added to wells containing serial 2-fold dilutions of drugs. MT-2 cells in RPMI 1640 medium supplemented with 10% dialyzed fetal bovine serum and 100 μg/mL Kanamnycin are infected with virus and immediately added to serial dilutions of the drugs. After 5 days, 20 μL of MTT dye (2.5 mg/mL in PBS) is added per well. At the end of the 4-h incubation period, 150 μL of acidified 2-propanol with 2% NP-40 nonionic detergent is added per well. After the crystals of dye are dissolved (usually 1-2 days), the plates are read on a microplate reader. Using this MTT-dye reduction method (Larder et al., (1990), Antimicrob. Agents Chemother. 34, 436-41), the percentage of protection can be calculated from the formula [(a−b)/(c−b)×100] in which a is the A595 of drug-treated virus-infected wells, b is the A595 of no-drug infected cells, and c is the A595 of the no-drug uninfected cells. The EC50 was calculated from linear log 10 plots of the percentage protection verses inhibition concentration.
Using the above-described experimental system, the ability of Triapine to potentiate the anti-HIV activity of the dideoxynucleoside analogs ddI (2′,3′-dideoxyinosine), D4T (2′,3′-dideoxydidehydrothymidine) and AZT (3′-azidothymidine) was examined in HIV-infected MT-2 cells (as described above).

[3] = Solubility in aqueous solution
HIV-infected cells = conditions: combined with 2′,3′-dideoxyinosine (DDI); cited from earlier work

decrease of the EC90 of ACV (HSV-1 (KOS); HSV-1, in the presence of 0.3 μM Triapine): 10 fold | decrease of the EC90 of ACV (HSV-1 (KOS); HSV-1, in the presence of 0.6 μM Triapine): greater than 24 fold | EC90 (HSV-1 (KOS); Human alphaherpesvirus 1): 29.3 µM | decrease in the EC90 of ACV (HSV-2 (333); HSV-2, with 0.6 μM Triapine): greater than 4 fold | EC90 (HSV-2 (333); Human alphaherpesvirus 2): 36.5 µM
SMILES: Nc1nc2c(ncn2COCCO)c(=O)[nH]1 [ACV, acyclovir]

SMILES: CC[C@@H](NC(=O)[C@@H](CC(=O)[C@@H](CC(=O)[C@@H](NC(=O)[C@H](C(C)C)N(C)C(=O)[C@H](C)CC1CCCCC1)C(C)(C)C)CC(=O)C(C)(C)C)C1(C(=O)O)CCCC1)C(C)(C)C [BILD1633 SE]
activity against acyclovir-resistant HSV strains [1]: had activity

SMILES: NC(=S)NN=Cc1ncccc1N [Triapine, 3-aminopyridine-2-carboxyaldehyde thiosemicarbazone]
concentration of Triapine reached [2]: 1000 nM | EC90 (HSV-1 (KOS)): > 1 µM | anti-HIV interaction (isobologram) (strain IIIB of HIV; combined with AZT): additive | anti-HIV interaction (isobologram) (strain IIIB of HIV; combined with D4T): synergistic | anti-HIV interaction (isobologram) (strain IIIB of HIV; combined with ddI): synergistic | EC90 (HSV-2 (333)): > 1 µM | solubility in aqueous solution [3]: less than 0.1 mg/ml

SMILES: NC(=O)NO [hydroxyurea]
effects against HIV-infected cells in combination (HIV-infected cells): synergistic effects
